Experimental findings from patent publication US9085750B2, “Stabilized subtilisin composition” (Novozymes A/S, priority 2011, dated 2015) are described below.

What all share (assay type): biochemical
Test [1] has as its target T1, subtilisin (Savinase 16L) (Lederbergia lenta, UniProt P29600).
T1 construct: purchased Novozymes A/S Savinase 16L
T1 sequence (P29600 1-269): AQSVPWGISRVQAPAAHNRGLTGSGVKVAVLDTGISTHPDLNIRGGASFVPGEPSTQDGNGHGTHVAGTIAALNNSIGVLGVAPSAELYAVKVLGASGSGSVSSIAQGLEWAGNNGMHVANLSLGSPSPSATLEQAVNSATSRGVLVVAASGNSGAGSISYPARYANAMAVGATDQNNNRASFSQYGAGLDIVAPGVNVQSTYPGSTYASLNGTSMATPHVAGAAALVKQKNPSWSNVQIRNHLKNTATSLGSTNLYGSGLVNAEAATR
The experiment in a line: Remaining protease activity of Savinase 16L after storage in the Table 1 detergent (hydrolysis of N,N-dimethylcasein). To be noted: one week at 40° C. The method, then:
(§1) General experimental details: Detergents with a subtilisin (Savinase 16L) and a lipase (Lipex 100L) with or without X—B^1—NH—CHR—CHOH—SO3Na (the peptide aldehyde hydrosulfite adduct can be added separately to the detergent containing the subtilisin) are placed in closed glasses at −18° C.; 35° C. and 40° C. Residual activities of protease and lipase are measured after different times using standard analytical methods (protease by hydrolysis of N,N-dimethylcasein at 40° C., pH 8.3 and lipase by hydrolysis of pNp-valerate at 40° C., pH 7.7). Similar trials can be made with addition of subtilisin to a detergent already containing suitable amounts of the peptide aldehyde hydrosulfite adduct. Similar results can be obtained with all the mentioned peptide aldehyde bisulfite adducts.
As an example of detergent composition with a stabilized subtilisin formulation, the composition described in Table 1 was made.
In Table 2 are shown the results obtained with X=Cbz-Gly; B^1=Ala; R═—CH2-p(C6H4)—OH; stability measured after one week incubation at 40° C. in the detergent described in Table 1.

The target in the next test is T2, Subtilisin: Savinase (Lederbergia lenta, UniProt P29600).
T2 construct: purchased Novozymes A/S Savinase 16L
T2 sequence (P29600 1-269): T1 sequence (P29600 1-269)
In words: Remaining subtilisin activity after storage in the Table 3 detergent. The following applies: 2 weeks at 35° C. The method, then:
as §1
(§2) As an example of a detergent composition with a stabilized subtilisin formulation, the composition described in Table 3 was made.
(§3) In Table 4 are shown the results measured after two weeks incubation at 35° C. in the detergent described in Table 3.

Another test relates to Lipase: Lipex 100L. The experiment in a line: Remaining lipase activity after storage with subtilisin in the Table 3 detergent (hydrolysis of pNp-valerate). The following applies: 2 weeks at 35° C. The method, then:
as §1, §2, §3

The next test deals with Subtilisin Coronase 48L. In words: Remaining subtilisin activity after storage in the Table 5 detergent, Coronase 48L. The following applies: 59 ppm inhibitor in detergent of Table 5. The procedure:
as §1
(§4) As yet another example of a detergent with a stabilized subtilisin formulation, the composition described in Table 5 was made.
(§5) In Table 6 are shown the results measured after 4 weeks incubation at 37° C., and after 8 weeks incubation at 30° C., in the detergent described in Table 5.

For test [2], the system named is Subtilisin Liquanase 2.5L. In words: Remaining subtilisin activity after storage in the Table 5 detergent, Liquanase 2.5L. The following applies: 34 ppm inhibitor in detergent of Table 5. The method, then: as §1, §4, §5
For the next test, the system named is Lipase: Lipoclean 2000L. The experiment in a line: Remaining lipase activity after storage with subtilisin in the Table 5 detergent. The procedure: as §1, §4, §5

With `C[C@H](NC(=O)CNC(=O)OCc1ccccc1)C(=O)N[C@@H](Cc1ccc(O)cc1)C(O)S(=O)(=O)[O-].[Na+]` (some centres unmarked) [Cbz-GA-NHCH(CH2C6H4OH)C(OH)(SO3M)-H], the figures for the “Protease stability (remaining activity)” value in test [1] (7 ppm inhibitor in detergent of Table 1), in test [1] (14 ppm inhibitor in detergent of Table 1) and in test [1] (18 ppm inhibitor in detergent of Table 1) were 52%, 77% and 80%, respectively. Also, the “Remaining activity of Subtilisin (protease)” value on Subtilisin: Savinase (21 ppm inhibitor in detergent of Table 3) stood at 63%. In addition, the “Remaining activity of Lipase” value in the test with Lipase: Lipex 100L (21 ppm inhibitor in detergent of Table 3 with Savinase) was determined as 18%. The “Remaining activity of Subtilisin, 4 weeks at 37° C.” value in the test on Subtilisin Coronase 48L is given as 80%; in test [2] it was 83%. For the same compound, the “Remaining activity of Lipase, 8 weeks at 30° C.” value in the test with Lipase: Lipoclean 2000L (with Coronase 48L, 59 ppm inhibitor in detergent of Table 5) is given as 61%; in the test on Lipase: Lipoclean 2000L (with Liquanase 2.5L, 34 ppm inhibitor in detergent of Table 5) it was 27%.

In the case of `O=Cc1ccc(B(O)O)cc1` [4-formylphenyl boronic acid, reference compound], on Subtilisin: Savinase (128 ppm inhibitor in detergent of Table 3, read-out: Remaining activity of Subtilisin (protease)), the remaining activity at 128 ppm is 8%. In the test with Lipase: Lipex 100L (128 ppm inhibitor in detergent of Table 3 with Savinase), the “Remaining activity of Lipase” value was determined as 2%.

One may read the remaining activity as the activity still measured, relative to the control.
